Paper PMC5122408, “High throughput chemical library screening identifies a novel p110-δ inhibitor that potentiates the anti-myeloma effect of bortezomib” (Oncotarget, 2016)

Tests used:
ERBB4 = ERBB4 (Homo sapiens, UniProt Q15303); set-up: method as in PMID 20959606; settings: Other Clinically-relevant Kinases; cited from earlier work
p110-β = p110-β (Homo sapiens, UniProt P42338); set-up: method as in PMID 20959606; settings: Class I PI3Ks; cited from earlier work
PKC2-α = PKC2-α (Homo sapiens, UniProt O00443); set-up: method as in PMID 20959606; settings: Class II PI3Ks; cited from earlier work
Sequence of PKC2-α (O00443 whole entry): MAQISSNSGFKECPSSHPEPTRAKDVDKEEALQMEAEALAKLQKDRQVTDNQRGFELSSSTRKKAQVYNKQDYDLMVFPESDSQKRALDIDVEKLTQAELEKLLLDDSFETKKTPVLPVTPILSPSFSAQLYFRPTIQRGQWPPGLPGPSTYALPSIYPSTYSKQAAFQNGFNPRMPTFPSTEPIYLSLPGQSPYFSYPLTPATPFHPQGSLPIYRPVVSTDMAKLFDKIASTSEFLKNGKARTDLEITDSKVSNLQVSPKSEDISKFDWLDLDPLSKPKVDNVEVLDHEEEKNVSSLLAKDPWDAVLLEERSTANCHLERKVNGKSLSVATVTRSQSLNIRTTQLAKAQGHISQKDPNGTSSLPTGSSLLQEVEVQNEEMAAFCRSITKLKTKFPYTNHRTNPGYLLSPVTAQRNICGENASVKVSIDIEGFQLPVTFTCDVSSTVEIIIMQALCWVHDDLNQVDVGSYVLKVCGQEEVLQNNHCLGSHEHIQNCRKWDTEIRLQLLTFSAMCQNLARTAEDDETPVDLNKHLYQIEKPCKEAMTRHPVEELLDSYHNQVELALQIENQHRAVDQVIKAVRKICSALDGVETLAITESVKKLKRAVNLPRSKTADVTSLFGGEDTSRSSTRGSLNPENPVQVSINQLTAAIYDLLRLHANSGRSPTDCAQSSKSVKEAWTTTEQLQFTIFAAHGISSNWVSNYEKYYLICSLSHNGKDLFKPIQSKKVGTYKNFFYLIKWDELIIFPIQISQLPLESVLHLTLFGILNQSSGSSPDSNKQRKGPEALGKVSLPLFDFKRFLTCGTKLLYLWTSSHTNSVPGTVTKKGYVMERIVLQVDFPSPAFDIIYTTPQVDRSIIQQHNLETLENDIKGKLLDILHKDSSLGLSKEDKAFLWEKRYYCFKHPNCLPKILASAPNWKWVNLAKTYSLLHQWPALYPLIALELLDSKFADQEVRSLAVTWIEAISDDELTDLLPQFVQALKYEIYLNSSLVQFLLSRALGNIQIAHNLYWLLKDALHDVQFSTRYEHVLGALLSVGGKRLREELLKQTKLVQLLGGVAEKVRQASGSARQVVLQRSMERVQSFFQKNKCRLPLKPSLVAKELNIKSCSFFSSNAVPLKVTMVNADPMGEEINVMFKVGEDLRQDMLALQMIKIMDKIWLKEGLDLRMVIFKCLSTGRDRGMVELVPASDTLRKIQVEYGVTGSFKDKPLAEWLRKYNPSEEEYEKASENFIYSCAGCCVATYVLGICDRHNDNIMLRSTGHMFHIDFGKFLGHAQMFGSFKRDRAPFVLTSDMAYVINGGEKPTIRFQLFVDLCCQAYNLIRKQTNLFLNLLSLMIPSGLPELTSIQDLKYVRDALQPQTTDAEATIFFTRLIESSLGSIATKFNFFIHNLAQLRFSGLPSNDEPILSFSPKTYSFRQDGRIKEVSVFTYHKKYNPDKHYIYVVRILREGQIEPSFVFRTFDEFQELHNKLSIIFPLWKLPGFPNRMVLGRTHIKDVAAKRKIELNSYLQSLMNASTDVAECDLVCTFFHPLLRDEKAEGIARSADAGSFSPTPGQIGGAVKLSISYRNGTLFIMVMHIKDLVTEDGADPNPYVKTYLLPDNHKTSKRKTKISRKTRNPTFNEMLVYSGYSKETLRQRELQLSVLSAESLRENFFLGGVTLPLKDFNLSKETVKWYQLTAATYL

PDGFR = test system: PDGFR; set-up: method as in PMID 20959606; settings: Other Clinically-relevant Kinases; cited from earlier work
PKCγ = test system: PKCγ; set-up: method as in PMID 20959606; settings: cited from earlier work
CLL cells = experiment: XTT viability, CLL cells (DT97 vs idelalisib); format: cell-based; settings: 1 uM, 72 h, XTT assay
ERBB2 = ERBB2 (Homo sapiens, UniProt P04626); set-up: method as in PMID 20959606; settings: Other Clinically-relevant Kinases; cited from earlier work
Sequence of ERBB2 (P04626 23-1255): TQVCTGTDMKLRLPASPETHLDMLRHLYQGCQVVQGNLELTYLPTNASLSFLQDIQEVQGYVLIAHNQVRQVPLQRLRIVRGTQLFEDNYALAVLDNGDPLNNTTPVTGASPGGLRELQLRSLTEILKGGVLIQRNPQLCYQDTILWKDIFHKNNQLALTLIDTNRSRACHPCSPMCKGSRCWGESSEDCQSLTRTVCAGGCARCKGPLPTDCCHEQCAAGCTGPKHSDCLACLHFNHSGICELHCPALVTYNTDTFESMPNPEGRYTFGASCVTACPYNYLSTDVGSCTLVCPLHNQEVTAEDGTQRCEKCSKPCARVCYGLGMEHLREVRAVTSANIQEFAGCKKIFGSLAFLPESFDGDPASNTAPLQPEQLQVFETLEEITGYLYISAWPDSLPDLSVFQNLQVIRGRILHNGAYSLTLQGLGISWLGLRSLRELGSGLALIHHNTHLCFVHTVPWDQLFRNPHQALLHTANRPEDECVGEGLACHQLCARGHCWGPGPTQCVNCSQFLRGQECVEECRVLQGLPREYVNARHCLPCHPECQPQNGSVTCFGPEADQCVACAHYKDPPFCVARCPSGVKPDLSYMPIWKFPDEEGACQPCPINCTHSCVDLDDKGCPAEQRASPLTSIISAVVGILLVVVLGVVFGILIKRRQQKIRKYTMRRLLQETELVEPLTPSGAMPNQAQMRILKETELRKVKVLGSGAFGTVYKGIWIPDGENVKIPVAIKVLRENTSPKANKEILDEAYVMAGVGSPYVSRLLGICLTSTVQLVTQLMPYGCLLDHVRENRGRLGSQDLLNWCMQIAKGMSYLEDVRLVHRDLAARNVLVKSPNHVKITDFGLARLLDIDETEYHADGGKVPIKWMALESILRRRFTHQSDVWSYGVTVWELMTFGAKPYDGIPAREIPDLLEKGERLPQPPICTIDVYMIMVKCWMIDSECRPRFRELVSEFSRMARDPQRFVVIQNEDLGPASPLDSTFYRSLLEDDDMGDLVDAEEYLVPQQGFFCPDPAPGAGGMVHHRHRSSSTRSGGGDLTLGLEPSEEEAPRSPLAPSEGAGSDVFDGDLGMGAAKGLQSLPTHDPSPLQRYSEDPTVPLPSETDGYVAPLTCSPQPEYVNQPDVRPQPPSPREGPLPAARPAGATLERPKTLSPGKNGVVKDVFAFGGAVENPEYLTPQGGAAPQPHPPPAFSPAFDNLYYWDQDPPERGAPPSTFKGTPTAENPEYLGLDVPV

p110-δ = p110-δ (Homo sapiens, UniProt O00329); set-up: method as in PMID 20959606; key to the marks not given beside the values; settings: Class I PI3Ks; cited from earlier work
p110-α = p110-α (Homo sapiens, UniProt P42336); set-up: method as in PMID 20959606; settings: Class I PI3Ks; cited from earlier work
p110-γ = p110-γ (Homo sapiens, UniProt P48736); set-up: method as in PMID 20959606; key to the marks not given beside the values; settings: Class I PI3Ks; cited from earlier work
MM.1S myeloma cells = experiment: Mouse xenograft model of myeloma; format: in vivo, mice; settings: subcutaneous myeloma xenograft; intravenous; bortezomib 0.5 mg/kg, DT97 10 mg/kg
Procedure: Five week old nude mice flanks are injected subcutaneously with MM.1S myeloma cells. Tumors formed within two weeks and mice were then treated intravenously with vehicle, bortezomib, DT97 or both bortezomib and DT97.
Subcutaneous tumors were generated after injection of myeloma cells. […] Vehicle or bortezomib was administered on days 1, 4, 8 and 11. Mice were euthanized when tumors reached 2 cm^3, became ulcerated or elicited neurologic or musculoskeletal complications that limited mobility and feeding. Survival and tumor growth were evaluated from the first day of treatment. Shown is the average of replicate measurements. […] Kaplan-Meier survival curves comparison of NOD. SCID mice after subcutaneous injection of parental myeloma cells treated with vehicle, DT97, bortezomib or both.
Mice received intravenous injection of either vehicle (PBS in 10% DMSO); bortezomib (0.5 mg/kg), DT97 (10 mg/kg) or both bortezomib and DT97. Tumor volume (TV) measurements were made using a vernier caliper and calculated using the formula: TV = 0.5 (a × b^2) where a is the long diameter and b the short diameter. Mice were euthanized when tumors reached 2 cm^3, became ulcerated or elicited neurologic or musculoskeletal complications that limited mobility and feeding.
In vivo statistical tests were performed using the 2-tailed Student t test.

Sequence of ERBB4 (Q15303 26-1308): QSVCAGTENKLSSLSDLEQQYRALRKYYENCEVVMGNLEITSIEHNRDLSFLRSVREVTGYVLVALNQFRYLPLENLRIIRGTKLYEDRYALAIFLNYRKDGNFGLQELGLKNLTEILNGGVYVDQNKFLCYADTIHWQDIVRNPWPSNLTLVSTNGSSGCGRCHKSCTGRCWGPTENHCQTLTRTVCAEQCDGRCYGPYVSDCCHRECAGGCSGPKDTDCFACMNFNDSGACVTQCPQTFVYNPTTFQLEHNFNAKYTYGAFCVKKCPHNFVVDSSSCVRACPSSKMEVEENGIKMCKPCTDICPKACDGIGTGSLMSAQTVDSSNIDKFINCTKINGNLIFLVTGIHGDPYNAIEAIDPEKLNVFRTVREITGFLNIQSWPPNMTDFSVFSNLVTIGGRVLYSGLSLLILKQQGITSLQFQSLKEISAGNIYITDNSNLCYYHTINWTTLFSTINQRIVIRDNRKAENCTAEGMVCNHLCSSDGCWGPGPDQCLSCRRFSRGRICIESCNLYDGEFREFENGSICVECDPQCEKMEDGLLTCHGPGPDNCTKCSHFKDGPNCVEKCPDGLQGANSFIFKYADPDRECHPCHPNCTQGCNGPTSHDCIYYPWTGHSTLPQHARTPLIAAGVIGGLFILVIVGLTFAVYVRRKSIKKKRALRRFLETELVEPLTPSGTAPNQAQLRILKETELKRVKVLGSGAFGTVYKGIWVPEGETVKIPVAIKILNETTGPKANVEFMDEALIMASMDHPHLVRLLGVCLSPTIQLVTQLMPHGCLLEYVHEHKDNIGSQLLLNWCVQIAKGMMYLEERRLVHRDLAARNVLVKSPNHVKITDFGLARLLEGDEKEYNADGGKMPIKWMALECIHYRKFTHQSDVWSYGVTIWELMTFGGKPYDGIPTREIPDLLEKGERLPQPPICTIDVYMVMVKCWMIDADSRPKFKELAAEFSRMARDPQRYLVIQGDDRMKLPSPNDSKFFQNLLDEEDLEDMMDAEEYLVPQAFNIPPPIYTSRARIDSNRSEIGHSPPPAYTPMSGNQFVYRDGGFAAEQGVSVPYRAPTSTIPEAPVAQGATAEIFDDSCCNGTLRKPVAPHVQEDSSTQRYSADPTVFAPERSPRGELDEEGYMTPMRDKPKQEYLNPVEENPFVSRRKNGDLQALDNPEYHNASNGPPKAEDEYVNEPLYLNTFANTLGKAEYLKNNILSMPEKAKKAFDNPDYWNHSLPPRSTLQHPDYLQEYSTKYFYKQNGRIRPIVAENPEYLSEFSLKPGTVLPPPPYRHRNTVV

Row | SMILES | Inhibitory profile (kinase inhibition) (ERBB4) | Inhibitory profile (kinase inhibition) (p110-β) | Inhibitory profile (kinase inhibition) (PKC2-α) | Inhibitory profile (kinase inhibition) (PDGFR) | Inhibitory profile (kinase inhibition) (PKCγ) | viability (CLL cells) | Inhibitory profile (kinase inhibition) (ERBB2) | Inhibitory profile (kinase inhibition) (p110-δ) | Inhibitory profile (kinase inhibition) (p110-α) | Inhibitory profile (kinase inhibition) (p110-γ) | overall survival (OS) (MM.1S myeloma cells) [days] | tumor growth (MM.1S myeloma cells)
1 | CC[C@H](Nc1ncnc2[nH]cnc12)c1nc2cccc(F)c2c(=O)n1-c1ccccc1 [Idelalisib, idelalisib] | none | + | none | none | none | more effectively reduced the viability | none | +++ | + | ++ | – | –
2 | CC(C)C[C@H](NC(=O)[C@H](Cc1ccccc1)NC(=O)c1cnccn1)B(O)O [bortezomib] | – | – | – | – | – | – | – | – | – | – | 20 | dramatically reduced tumor growth
